Experimental data reported in ChEMBL document CHEMBL1149530, “Design and synthesis of a new, conformationally constrained, macrocyclic small-molecule inhibitor of STAT3 via 'click chemistry'” (Bioorg Med Chem Lett, 2007).
pKi: −log10 of the molar value. Where a SMILES comes first, the peptide text is derived from it. Bridges are numbered along the chain shown (N, C = ends). Triazole bridges read from a SMILES are 1,4-linked. [ ]: non-standard residue; d: D form. pY = N[C@@H](Cc1ccc(OP(=O)(O)O)cc1)C(=O)O; Lys(N3) = [N-]=[N+]=NCCCC[C@H](N)C(=O)O; Pra = C#CC[C@H](N)C(=O)O

Target: Signal transducer and activator of transcription 3 (Homo sapiens, UniProt P40763)
Assay: Binding affinity to recombinant STAT3 by fluorescence polarization based binding assay

Sequence of Signal transducer and activator of transcription 3 (P40763 whole entry): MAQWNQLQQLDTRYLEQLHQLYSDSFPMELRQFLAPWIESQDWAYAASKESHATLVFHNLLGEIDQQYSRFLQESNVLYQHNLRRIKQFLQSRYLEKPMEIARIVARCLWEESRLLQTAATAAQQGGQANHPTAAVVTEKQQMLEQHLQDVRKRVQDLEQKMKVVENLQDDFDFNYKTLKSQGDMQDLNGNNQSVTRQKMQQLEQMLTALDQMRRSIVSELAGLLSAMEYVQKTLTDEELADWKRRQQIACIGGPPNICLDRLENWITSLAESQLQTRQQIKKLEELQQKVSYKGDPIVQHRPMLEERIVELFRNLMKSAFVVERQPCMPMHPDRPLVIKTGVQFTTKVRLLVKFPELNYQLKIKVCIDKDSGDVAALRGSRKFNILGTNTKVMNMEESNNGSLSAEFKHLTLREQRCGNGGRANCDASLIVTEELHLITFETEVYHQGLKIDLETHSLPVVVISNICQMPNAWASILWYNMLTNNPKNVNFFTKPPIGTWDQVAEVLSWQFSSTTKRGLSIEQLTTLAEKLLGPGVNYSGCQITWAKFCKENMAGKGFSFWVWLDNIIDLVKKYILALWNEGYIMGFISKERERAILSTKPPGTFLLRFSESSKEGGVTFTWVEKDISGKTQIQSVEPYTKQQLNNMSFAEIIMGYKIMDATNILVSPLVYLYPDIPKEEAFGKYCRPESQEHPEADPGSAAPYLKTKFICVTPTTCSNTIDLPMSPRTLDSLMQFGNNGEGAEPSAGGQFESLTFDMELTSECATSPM

Compound	pKi
CC(=O)N[C@@H](Cc1ccc(OP(=O)(O)O)cc1)C(=O)N[C@@H](CC(C)C)C(=O)N[C@@H](CCCCN)C(=O)N[C@H](C(=O)N[C@@H](CCCCN)C(=O)N[C@@H](Cc1ccccc1)C(N)=O)[C@@H](C)O (HELM PEPTIDE1{[ac].[O=C([C@H](Cc1ccc(OP(=O)(O)O)cc1)N[*:1])[*:2]].L.K.T.K.F.[am]}$$$$V2.0)	4.59
CC(=O)N[C@@H](Cc1ccc(OP(=O)(O)O)cc1)C(=O)N[C@@H](CC(C)C)C(=O)N[C@H]1CCCCn2cc(nn2)C[C@@H](C(=O)N[C@@H](Cc2ccccc2)C(N)=O)NC(=O)[C@H]([C@@H](C)O)NC1=O (Ac-[pY]L[Lys(N3)]T[Pra]F-NH2; triazole 3-5)	5.14
